Calls of active or inactive are those of the source. The rule behind the calls is not given here.
System: CCRIS mutagenicity, Ames/micronucleus/aberration tests
Assay: CCRIS mutagenicity studies
[1] = Test System: AMES SALMONELLA TYPHIMURIUM, Strain/Indicator: TA98, Metabolic Activation: NONE, Method: STANDARD PLATE
[2] = Test System: AMES SALMONELLA TYPHIMURIUM, Strain/Indicator: TA100, Metabolic Activation: NONE, Method: STANDARD PLATE
[3] = Test System: AMES SALMONELLA TYPHIMURIUM, Strain/Indicator: TA100, Metabolic Activation: NONE, Method: PREINCUBATION
[4] = Test System: AMES SALMONELLA TYPHIMURIUM, Strain/Indicator: TA1535, Metabolic Activation: NONE, Method: PREINCUBATION

SMILES: O=[N+]([O-])c1cc2cccc([N+](=O)[O-])c2c2ccccc12
- mutagenic call (Test System: AMES SALMONELLA TYPHIMURIUM, Strain/Indicator: TA98(1,8-DNP6), Metabolic Activation: NONE, Method: STANDARD PLATE): active; positive
- mutagenic call (Test System: AMES SALMONELLA TYPHIMURIUM, Strain/Indicator: TA98(NR), Metabolic Activation: NONE, Method: STANDARD PLATE): active; positive
- mutagenic call [1]: active; positive
- mutagenic call [2]: active; positive
- mutagenic call (Test System: AMES SALMONELLA TYPHIMURIUM, Strain/Indicator: YG1021, Metabolic Activation: NONE, Method: STANDARD PLATE): active; positive
- mutagenic call (Test System: AMES SALMONELLA TYPHIMURIUM, Strain/Indicator: YG1024, Metabolic Activation: NONE, Method: STANDARD PLATE): active; positive
- mutagenic call (Test System: AMES SALMONELLA TYPHIMURIUM, Strain/Indicator: YG1026, Metabolic Activation: NONE, Method: STANDARD PLATE): active; positive
- mutagenic call (Test System: AMES SALMONELLA TYPHIMURIUM, Strain/Indicator: YG1029, Metabolic Activation: NONE, Method: STANDARD PLATE): active; positive

SMILES: C=C1C[C@@]23CC[C@H]4[C@@](C)(CCC[C@@]4(C)C(=O)O[C@@H]4O[C@H](CO)[C@@H](O)[C@H](O)[C@H]4O)[C@@H]2CC[C@]1(O[C@@H]1O[C@H](CO)[C@@H](O)[C@H](O[C@@H]2O[C@H](CO)[C@@H](O)[C@H](O)[C@H]2O)[C@H]1O[C@@H]1O[C@@H](C)[C@H](O)[C@@H](O)[C@H]1O)C3
- mutagenic call (Test System: AMES SALMONELLA TYPHIMURIUM, Strain/Indicator: TM677, Metabolic Activation: RAT, LIVER, S-9, AROCLOR 1254, Method: PREINCUBATION): inactive; negative

SMILES: CC(=O)N(O)c1ccc(Oc2c(Cl)cc(Cl)cc2Cl)cc1
- mutagenic call [2]: inactive; negative
- mutagenic call (Test System: AMES SALMONELLA TYPHIMURIUM, Strain/Indicator: TA100, Metabolic Activation: RAT, LIVER, S-9, KANECLOR 500, Method: STANDARD PLATE): active; positive

SMILES: CCCCc1oc2ccccc2c1C(=O)c1cc(I)c(OCCN(CC)CC)c(I)c1
- mutagenic call (End Point: In vivo chromosomal aberrations, Test System: Bone marrow cells, Species: Rat, Strain/Sex: SHR (spontaneously hypertensive)/Female, Route: Oral): inactive; negative
- mutagenic call (End Point: In vivo chromosomal aberrations, Test System: Bone marrow cells, Species: Rat, Strain/Sex: Wistar-Kyoto (WKY)/Female, Route: Oral): active; positive

SMILES: Cc1nc2c(c3[nH]c4ccccc4c13)C(=O)C=CC2=O
- mutagenic call (Test System: AMES SALMONELLA TYPHIMURIUM, Strain/Indicator: TA97, Metabolic Activation: NONE, Method: STANDARD PLATE): inactive; negative
- mutagenic call (Test System: AMES SALMONELLA TYPHIMURIUM, Strain/Indicator: TA97, Metabolic Activation: RAT, LIVER, S-9, AROCLOR 1254, Method: STANDARD PLATE): active; positive
- mutagenic call [1]: active; positive
- mutagenic call (Test System: AMES SALMONELLA TYPHIMURIUM, Strain/Indicator: TA98, Metabolic Activation: RAT, LIVER, S-9, AROCLOR 1254, Method: STANDARD PLATE): active; positive
- mutagenic call [2]: inactive; negative
- mutagenic call (Test System: AMES SALMONELLA TYPHIMURIUM, Strain/Indicator: TA100, Metabolic Activation: RAT, LIVER, S-9, AROCLOR 1254, Method: STANDARD PLATE): inactive; negative
- mutagenic call (Test System: AMES SALMONELLA TYPHIMURIUM, Strain/Indicator: TA102, Metabolic Activation: NONE, Method: STANDARD PLATE): inactive; negative
- mutagenic call (Test System: AMES SALMONELLA TYPHIMURIUM, Strain/Indicator: TA102, Metabolic Activation: RAT, LIVER, S-9, AROCLOR 1254, Method: STANDARD PLATE): inactive; negative

SMILES: COC(=O)c1ccc([N+](=O)[O-])o1
- mutagenic call [1]: active; positive
- mutagenic call [2]: active; positive

SMILES: CC(Br)C(=O)NCc1ccc(Cl)cc1 (configuration not stated)
- mutagenic call (Test System: AMES SALMONELLA TYPHIMURIUM, Strain/Indicator: TA100, Metabolic Activation: MOUSE, LIVER, S-9, AROCLOR 1254, Method: STANDARD PLATE): active; positive
- mutagenic call [2]: active; positive

SMILES: CCN(N=O)C(=O)Nc1ccccc1
- mutagenic call (End Point: IN VITRO CHROMOSOMAL ABERRATIONS, Test System: CHINESE HAMSTER V79-E CELLS, Metabolic Activation: NONE): active; positive (structural changes)

SMILES: CCc1c2ccccc2cc2ccc3ccccc3c12
- mutagenic call (Test System: AMES SALMONELLA TYPHIMURIUM, Strain/Indicator: TA98, Method: STANDARD PLATE): inactive; negative
- mutagenic call (Test System: AMES SALMONELLA TYPHIMURIUM, Strain/Indicator: TA100, Metabolic Activation: RAT, LIVER, S-9, PHENOBARBITAL, Method: STANDARD PLATE): inactive; negative
- mutagenic call (Test System: AMES SALMONELLA TYPHIMURIUM, Strain/Indicator: TA100, Method: STANDARD PLATE): inactive; negative

SMILES: N[C@@H](CCC(=O)N[C@@H](CSC(=O)NCCCl)C(=O)NCC(=O)O)C(=O)O
- mutagenic call (Test System: AMES SALMONELLA TYPHIMURIUM, Strain/Indicator: TA1535, Metabolic Activation: NONE, Method: STANDARD PLATE): active; positive

SMILES: CCNCCN
- mutagenic call (Test System: AMES SALMONELLA TYPHIMURIUM, Strain/Indicator: TA98, Metabolic Activation: NONE, Method: PREINCUBATION): inactive; negative
- mutagenic call (Test System: AMES SALMONELLA TYPHIMURIUM, Strain/Indicator: TA98, Metabolic Activation: RAT LIVER S-9, PHENOBARBITAL AND BETA-NAPHTHOFLAVONE, Method: PREINCUBATION): inactive; negative
- mutagenic call [3]: inactive; negative
- mutagenic call (Test System: AMES SALMONELLA TYPHIMURIUM, Strain/Indicator: TA100, Metabolic Activation: RAT LIVER S-9, PHENOBARBITAL AND BETA-NAPHTHOFLAVONE, Method: PREINCUBATION): inactive; negative
- mutagenic call [4]: inactive; negative
- mutagenic call (Test System: AMES SALMONELLA TYPHIMURIUM, Strain/Indicator: TA1535, Metabolic Activation: RAT LIVER S-9, PHENOBARBITAL AND BETA-NAPHTHOFLAVONE, Method: PREINCUBATION): inactive; negative
- mutagenic call (Test System: AMES SALMONELLA TYPHIMURIUM, Strain/Indicator: TA1537, Metabolic Activation: NONE, Method: PREINCUBATION): inactive; negative
- mutagenic call (Test System: AMES SALMONELLA TYPHIMURIUM, Strain/Indicator: TA1537, Metabolic Activation: RAT LIVER S-9, PHENOBARBITAL AND BETA-NAPHTHOFLAVONE, Method: PREINCUBATION): inactive; negative
- mutagenic call (Test System: AMES SALMONELLA TYPHIMURIUM, Strain/Indicator: TA1538, Metabolic Activation: NONE, Method: PREINCUBATION): inactive; negative
- mutagenic call (Test System: AMES SALMONELLA TYPHIMURIUM, Strain/Indicator: TA1538, Metabolic Activation: RAT LIVER S-9, PHENOBARBITAL AND BETA-NAPHTHOFLAVONE, Method: PREINCUBATION): inactive; negative
- mutagenic call (Test System: E.COLI, Strain/Indicator: WP2UVRA, Metabolic Activation: NONE, Method: PREINCUBATION): inactive; negative
- mutagenic call (Test System: E.COLI, Strain/Indicator: WP2UVRA, Metabolic Activation: RAT LIVER S-9, PHENOBARBITAL AND BETA-NAPHTHOFLAVONE, Method: PREINCUBATION): inactive; negative

SMILES: CC(C)COS(=O)(=O)c1ccccc1
- mutagenic call [1]: active; positive
- mutagenic call (Test System: AMES SALMONELLA TYPHIMURIUM, Strain/Indicator: TA98, Metabolic Activation: RAT, LIVER, S-9, Method: STANDARD PLATE): active; positive
- mutagenic call (Test System: AMES SALMONELLA TYPHIMURIUM, Strain/Indicator: TA100, Metabolic Activation: RAT, LIVER, S-9, Method: STANDARD PLATE): active; positive

SMILES: O=C(OCC1CO1)C1CCCCC1C(=O)OCC1CO1 (configuration not stated)
- mutagenic call (Test System: AMES SALMONELLA TYPHIMURIUM, Strain/Indicator: TA100, Metabolic Activation: HAMSTER, LIVER, S-9, AROCLOR 1254 (30%), Method: PREINCUBATION): active; positive
- mutagenic call [3]: active; positive
- mutagenic call (Test System: AMES SALMONELLA TYPHIMURIUM, Strain/Indicator: TA100, Metabolic Activation: RAT, LIVER, S-9, AROCLOR 1254 (30%), Method: PREINCUBATION): active; positive
- mutagenic call (Test System: AMES SALMONELLA TYPHIMURIUM, Strain/Indicator: TA1535, Metabolic Activation: HAMSTER, LIVER, S-9, AROCLOR 1254 (30%), Method: PREINCUBATION): active; positive
- mutagenic call [4]: active; positive
- mutagenic call (Test System: AMES SALMONELLA TYPHIMURIUM, Strain/Indicator: TA1535, Metabolic Activation: RAT, LIVER, S-9, AROCLOR 1254 (30%), Method: PREINCUBATION): active; positive

SMILES: O=[N+]([O-])c1ccc2[nH]ccc2c1
- mutagenic call [1]: active; positive
